Reference: patent US11034650B2, “Compounds useful for treating a Mannheimia haemolytica or Histophilus somni infection” (Intervet Inc., priority 2016, dated 2021)
Converted amounts (≈) assume the structure as drawn.

Columns and labels:
Type in all cases: cell-based
[1] = tested on: Mannheimia haemolytica MH 6357 (M7/2, reference strain, cattle infection strain); experiment: MIC, broth-microdilution (CLSI VET01-A4), strain MH 6357; settings: Mannheimia haemolytica strain MH 6357, broth-microdilution; unit assumed
Experimental: (§1) For example, representative compounds were tested against ***, Mannheimia haemolytica and Pasteurella multocida, using the conventional broth-dilution assay.
(§2) The Minimum inhibitory concentrations (MIC) of compounds according to the invention for a number of veterinary bacterial pathogens were determined by the broth-microdilution method according to CLSI document VET01-A4.
(§3) Microdilution trays containing a doubling dilution series of the test compound were used for the tests. The MIC results were interpreted according to the CLSI documents VET01-S3. The lowest concentration of compound at which no visible growth (i.e. no turbidity) detected by the unaided eye was recorded as the MIC.

[2] = tested on: Mannheimia haemolytica MH 6374 (ATCC 33396, reference strain); experiment: MIC, broth-microdilution (CLSI VET01-A4), strain MH 6374; settings: Mannheimia haemolytica strain MH 6374, broth-microdilution; unit assumed
Experimental: as §1, §2, §3

[3] = tested on: Mannheimia haemolytica MH 10720 (154, BRD field isolate); experiment: MIC, broth-microdilution (CLSI VET01-A4), strain MH 10720; settings: Mannheimia haemolytica strain MH 10720, broth-microdilution; unit assumed
Experimental: as §1, §2, §3

[4] = tested on: Mannheimia haemolytica MH 12587 (1071, BRD field isolate, macrolide-resistance: erm+, E+); experiment: MIC, broth-microdilution (CLSI VET01-A4), strain MH 12587; settings: Mannheimia haemolytica strain MH 12587, broth-microdilution; unit assumed
Experimental: as §1, §2, §3

[5] = tested on: Mannheimia haemolytica MH 13065 (XB0446-6003.9, BRD field isolate); experiment: MIC, broth-microdilution (CLSI VET01-A4), strain MH 13065; settings: Mannheimia haemolytica strain MH 13065, broth-microdilution; unit assumed
Experimental: as §1, §2, §3

[6] = tested on: Mannheimia haemolytica MH 13093 (XB0472-6014.1, BRD field isolate); experiment: MIC, broth-microdilution (CLSI VET01-A4), strain MH 13093; settings: Mannheimia haemolytica strain MH 13093, broth-microdilution; unit assumed
Experimental: as §1, §2, §3

[7] = tested on: Pasteurella multocida PM 6267 (P 2225 (L386), reference strain, mouse infection strain); experiment: MIC, broth-microdilution (CLSI VET01-A4), strain PM 6267; settings: Pasteurella multocida strain PM 6267, broth-microdilution; unit assumed
Experimental: as §1, §2, §3

[8] = tested on: Pasteurella multocida PM 10775 (080130003051, BRD field isolate); experiment: MIC, broth-microdilution (CLSI VET01-A4), strain PM 10775; settings: Pasteurella multocida strain PM 10775, broth-microdilution; unit assumed
Experimental: as §1, §2, §3

[9] = tested on: Pasteurella multocida PM 12080 (IV102277-0093, BRD field isolate); experiment: MIC, broth-microdilution (CLSI VET01-A4), strain PM 12080; settings: Pasteurella multocida strain PM 12080, broth-microdilution; unit assumed
Experimental: as §1, §2, §3

Question: How did the MIC MH 6357 [1] turn out when `CC(C)NCc1ccc(C#Cc2ccc(C(=O)N[C@H](C(=O)NO)C(C)C)cc2)cc1` [Compound 93] was run?
Answer: The MIC MH 6357 was 6.3 µg/mL (≈ 15.5 µM).

Question: And the MIC MH 6374 [2]?
Answer: Its MIC MH 6374 is 6.3 µg/mL (≈ 15.5 µM).

Question: What about the MIC MH 10720 [3] of the same compound?
Answer: The MIC MH 10720 was 3.1 µg/mL (≈ 7.61 µM).

Question: And the MIC MH 12587 [4]?
Answer: The MIC MH 12587 was 12.5 µg/mL (≈ 30.7 µM).

Question: And the MIC MH 13065 [5]?
Answer: The MIC MH 13065 was 6.3 µg/mL (≈ 15.5 µM).

Question: What about the MIC MH 13093 [6] of the same compound?
Answer: Its MIC MH 13093 is 12.5 µg/mL (≈ 30.7 µM).

Question: And the MIC PM 6267 [7]?
Answer: Its MIC PM 6267 is at most 0.1 µg/mL.

Question: And the MIC PM 10775 [8]?
Answer: The MIC PM 10775 was at most 0.1 µg/mL.

Question: What about the MIC PM 12080 [9] of the same compound?
Answer: The MIC PM 12080 was 1.6 µg/mL (≈ 3.93 µM).

Question: How did the MIC MH 6357 [1] turn out when `CC(C)[C@H](NC(=O)c1ccc(C#Cc2ccc(CN3CCN(c4ccccn4)CC3)cc2)cc1)C(=O)NO` [Compound 101] was run?
Answer: Its MIC MH 6357 is 3.1 µg/mL (≈ 6.06 µM).

Question: And the MIC MH 6374 [2]?
Answer: Its MIC MH 6374 is 3.1 µg/mL (≈ 6.06 µM).

Question: And the MIC MH 10720 [3]?
Answer: Its MIC MH 10720 is 0.8 µg/mL (≈ 1.56 µM).

Question: What about the MIC MH 12587 [4] of the same compound?
Answer: The MIC MH 12587 was 12.5 µg/mL (≈ 24.4 µM).

Question: What about the MIC MH 13065 [5] of the same compound?
Answer: The MIC MH 13065 was 3.1 µg/mL (≈ 6.06 µM).

Question: What about the MIC MH 13093 [6] of the same compound?
Answer: Its MIC MH 13093 is 3.1 µg/mL (≈ 6.06 µM).

Question: What about the MIC PM 6267 [7] of the same compound?
Answer: Its MIC PM 6267 is 0.4 µg/mL (≈ 0.782 µM).

Question: And the MIC PM 10775 [8]?
Answer: The MIC PM 10775 was at most 0.1 µg/mL.

Question: And the MIC PM 12080 [9]?
Answer: The MIC PM 12080 was 0.8 µg/mL (≈ 1.56 µM).

Question: What does the source list for `CC(C)[C@H](NC(=O)c1ccc(C#Cc2ccc(CNCc3ccc(Cl)cc3)cc2)cc1)C(=O)NO` [Compound 106]?
Answer: MIC MH 6357 [1]: 0.8 µg/mL (≈ 1.63 µM); MIC MH 6374 [2]: 0.8 µg/mL (≈ 1.63 µM); MIC MH 10720 [3]: 0.2 µg/mL (≈ 0.408 µM); MIC MH 12587 [4]: 1.6 µg/mL (≈ 3.27 µM); MIC MH 13065 [5]: 0.8 µg/mL (≈ 1.63 µM); MIC MH 13093 [6]: 1.6 µg/mL (≈ 3.27 µM); MIC PM 6267 [7]: 0.2 µg/mL (≈ 0.408 µM); MIC PM 10775 [8]: ≤ 0.1 µg/mL; MIC PM 12080 [9]: 0.8 µg/mL (≈ 1.63 µM)

Question: Which results are given for `CC(C)[C@H](NC(=O)c1ccc(C#Cc2ccc(CN3CCS(=O)(=O)CC3)cc2)cc1)C(=O)NO` [Compound 99]?
Answer: MIC MH 6357 [1]: 3.1 µg/mL (≈ 6.41 µM); MIC MH 6374 [2]: 6.3 µg/mL (≈ 13 µM); MIC MH 10720 [3]: 0.8 µg/mL (≈ 1.65 µM); MIC MH 12587 [4]: 12.5 µg/mL (≈ 25.8 µM); MIC MH 13065 [5]: 6.3 µg/mL (≈ 13 µM); MIC MH 13093 [6]: 6.3 µg/mL (≈ 13 µM); MIC PM 6267 [7]: ≤ 0.1 µg/mL; MIC PM 10775 [8]: ≤ 0.1 µg/mL; MIC PM 12080 [9]: 0.2 µg/mL (≈ 0.414 µM)

Question: How did the MIC MH 6357 [1] turn out when `CC(C)[C@H](NC(=O)c1ccc(C#Cc2ccc(CNCc3ccc(N(C)C)cc3)cc2)cc1)C(=O)NO` [Compound 108] was run?
Answer: The MIC MH 6357 was 3.1 µg/mL (≈ 6.22 µM).

Question: What about the MIC MH 6374 [2] of the same compound?
Answer: Its MIC MH 6374 is 1.6 µg/mL (≈ 3.21 µM).

Question: And the MIC MH 10720 [3]?
Answer: Its MIC MH 10720 is 1.6 µg/mL (≈ 3.21 µM).

Question: And the MIC MH 12587 [4]?
Answer: Its MIC MH 12587 is 3.1 µg/mL (≈ 6.22 µM).

Question: And the MIC MH 13065 [5]?
Answer: The MIC MH 13065 was 1.6 µg/mL (≈ 3.21 µM).

Question: And the MIC MH 13093 [6]?
Answer: The MIC MH 13093 was 3.1 µg/mL (≈ 6.22 µM).

Question: And the MIC PM 6267 [7]?
Answer: Its MIC PM 6267 is 0.4 µg/mL (≈ 0.802 µM).

Question: What about the MIC PM 10775 [8] of the same compound?
Answer: Its MIC PM 10775 is at most 0.1 µg/mL.

Question: What about the MIC PM 12080 [9] of the same compound?
Answer: Its MIC PM 12080 is 1.6 µg/mL (≈ 3.21 µM).

Question: For `COc1ccc(CNCc2cccc(C#Cc3ccc(C(=O)N[C@H](C(=O)NO)C(C)C)cc3)c2)cc1` [Compound 43], which MIC MH 6357 [1] is on record?
Answer: The MIC MH 6357 was 6.3 µg/mL (≈ 13 µM).

Question: And the MIC MH 6374 [2]?
Answer: The MIC MH 6374 was 6.3 µg/mL (≈ 13 µM).

Question: And the MIC MH 10720 [3]?
Answer: The MIC MH 10720 was 1.6 µg/mL (≈ 3.3 µM).

Question: What about the MIC MH 12587 [4] of the same compound?
Answer: Its MIC MH 12587 is 12.5 µg/mL (≈ 25.7 µM).

Question: And the MIC MH 13065 [5]?
Answer: The MIC MH 13065 was 6.3 µg/mL (≈ 13 µM).

Question: What about the MIC MH 13093 [6] of the same compound?
Answer: The MIC MH 13093 was 12.5 µg/mL (≈ 25.7 µM).

Question: And the MIC PM 6267 [7]?
Answer: The MIC PM 6267 was 3.1 µg/mL (≈ 6.38 µM).

Question: What about the MIC PM 10775 [8] of the same compound?
Answer: Its MIC PM 10775 is 0.4 µg/mL (≈ 0.824 µM).

Question: And the MIC PM 12080 [9]?
Answer: The MIC PM 12080 was 3.1 µg/mL (≈ 6.38 µM).
